Experimental data reported in publication PMC9063842, “A GH115 α-glucuronidase structure reveals dimerization-mediated substrate binding and a proton wire potentially important for catalysis” (Acta Crystallographica. Section D, Structural Biology, 2022).

B1: wtsAgu115A (enzyme)
chain: AGDNKGITYEELNPERFTLLEKGTPTNILIDENEDQGVMIAATNLSEDFGRVSGTNAPLIFLPDNERLIIVGTLESRYIKELTENRKIKGDELKGKNEKYLMTVVDNPLPGVKEALIIAGSDKRGAIYGIYELSEQIGVSPWYDWADVPVKPQQNLSIERGSYTADEPAVTYRGIFLNDEAPALTSWVENTYGTKYGDHRFYSRVFELILRLRGNFLWPAMWDWSFYGDDPLNSKTADTMGIIMGTSHHEPMARNHQEWARNRDKYGVWDYTSNQEVIDQFFREGIERVKDTDDLITIGMRGDGDTPMPMGVKEGEDHLPSDEDNMRLLERIIKNQREIIGDVTGESPEKTPQVWAIYKEVQRYFDLGLRPPEDVIILLSDDNWGNVRRLPTEEERDHPGGWGMYYHFDYVGAPRSSKWLNISPIQNIWEQMQLTYDYGVDELWVANVGDLKPMEYPITLFLDMAWDPTRFNAENLLDHTRSFAAQQFGEDQADEAARIINLYSKYNGRVTPEMLDRNTYNLESGEWKKVSDEYIKLEAEALRQYLTLEPEQRDAYKQLILYPVQAMANLYEMYYSQAMNHKLYRENNPMANYWADRVEETFNRDAELSHDYNKVMANGKWDGMMTQKKIGYRSWNDNFPADTLPQIFRIENPEEATGGYVFTARDGVVVIEAEHYFEAKDAEEAKWTVIPYMGRTLSSIALMPYTKEVEGASLSYRMQIPDEVSEVKVHVVVKSTLPFHDPKGHEYRVGFEGGSKEIVNFNWNLNEEPENIYSVFYPTVASRVVKKDVTLDLHDTDDGFYTLTLEPLDPGIVFQKIVVDFGGYEESRLFMEESPNKRIEIE

Legend:
wtsAgu115A = target: T1, wtsAgu115A (uncultured bacterium, UniProt A0ACD6BAS3); assay: X-ray crystal structure, crystal soaking; format: binding; conditions: 2.65 A; 0.2 M CaCl2, HEPES pH 7.5, 28% PEG 400; five of six xylose units visible; active site at dimer interface; Ca2+ near site; wild type inferred (Asp303 side chain H-bonds the ligand)
T1 construct: mature protein without 19-residue signal peptide, pET-28a (NcoI/XhoI), His-tag purified, E. coli BL21(DE3) pLysS; homodimer

[1] = target: the molecule itself; assay: SEC; analytical gel filtration, HiLoad 16/60 Superdex G200, 10 mM sodium acetate, 150 mM NaCl pH 6, 0.5 ml/min; standards aldolase (158 kDa), conalbumin (75 kDa), ovalbumin (44 kDa)

Row | Molecule | X-ray crystal structure, crystal soaking (wtsAgu115A) | stoichiometry N [1]
1 | OC1OC[C@@H](O[C@@H]2OC[C@@H](O[C@@H]3OC[C@@H](O[C@@H]4OC[C@@H](O[C@@H]5OC[C@@H](O[C@@H]6OC[C@@H](O)[C@H](O)[C@H]6O)[C@H](O)[C@H]5O)[C@H](O)[C@H]4O)[C@H](O)[C@H]3O)[C@H](O)[C@H]2O)[C@H](O)[C@H]1O (some centres unmarked) [xylohexaose] | five β-1,4-linked D-xylopyranose moieties was observed in the crystal structure of wtsAgu115A soaked with xylohexaose | –
2 | B1 | – | 2
